Results reported in patent US20100298381A1, “GAMMA SECRETASE MODULATORS” (Schering Corporation, priority 2007, published 2010).

Key:
[1] = test system: Aβ42 in HEK293 cells overexpressing APP with Swedish and London mutations; assay: Secretase reaction and Aβ analysis in whole cells, Aβ42 (ECL sandwich immunoassay); format: cell-based; settings: Homo sapiens, 5 hour at 37° C.
Description: (§1) Secretase Reaction and Aβ Analysis in Whole Cells: HEK293 cells overexpressing APP with Swedish and London mutations were treated with the specified compounds for 5 hour at 37° C. in […] of DMEM medium containing 10% fetal bovine serum. At the end of the incubation, total Aβ, Aβ40 and Aβ42 were measured using electrochemiluminescence (ECL) based sandwich immunoassays. Total Aβ was determined using a pair of antibodies TAG-WO2 and biotin-4G8, Aβ40 was identified with antibody pairs TAG-G2-10 and biotin-4G8, while Aβ42 was identified with TAG-G2-11 and biotin-4G8. The ECL signal was measured using Sector Imager 2400 (Meso Scale Discovery).

[2] = test system: total Aβ in HEK293 cells overexpressing APP with Swedish and London mutations; assay: Secretase reaction and Aβ analysis in whole cells, total Aβ (ECL sandwich immunoassay); format: cell-based; settings: Homo sapiens, 5 hour at 37° C.
Description: as §1

| Structure (SMILES) | IC50 [1] [nM] | IC50 [2] [nM] |
| --- | --- | --- |
| CC/N=C1\N/C(=C\c2ccc(-n3cnc(C)c3)c(OC)c2)C(=O)N1[C@H](C)c1ccc(F)cc1 [Example A9m] | 46 to 94 | 778 to 20000 |
| COc1cc(/C=C2\N/C(=N\CC3CC3)N(Cc3cc(F)c(F)c(F)c3)C2=O)ccc1-n1cnc(C)c1 [Example A9r] | 46 to 94 | 778 to 20000 |
| CC/N=C1\N/C(=C\c2ccc(-n3cnc(C)c3)c(OC)c2)C(=O)N1Cc1cc(F)c(F)c(F)c1 [Example A9t] | 46 to 94 | 778 to 20000 |
| COc1cc(/C=C2\N/C(=N\CCO)N(Cc3cc(F)c(F)c(F)c3)C2=O)ccc1-n1cnc(C)c1 [Example A9u] | 46 to 94 | 778 to 20000 |
| CC/N=C1\N/C(=C\c2ccc(-n3cnc(C)c3)c(OC)c2)C(=O)N1Cc1ccc(F)cc1 [Example B2] | 46 to 94 | 778 to 20000 |
| COc1cc(/C=C2\N/C(=N\CCO)N(Cc3ccc(F)cc3)C2=O)ccc1-n1cnc(C)c1 [Example B4] | 46 to 94 | 778 to 20000 |
| CCCC/N=C1\N/C(=C\c2ccc(-n3cnc(C)c3)c(OC)c2)C(=O)N1Cc1ccc(F)cc1 [Example B5] | 46 to 94 | 778 to 20000 |
| COc1cc(/C=C2\N/C(=N\CC3CC3)N(Cc3ccc(F)cc3)C2=O)ccc1-n1cnc(C)c1 [Example B6] | 46 to 94 | 778 to 20000 |
| COc1cc(/C=C2\NC(=N)N(C(C)c3cc(F)c(F)c(F)c3)C2=O)ccc1-n1cnc(C)c1 (centres unmarked) [Example B7] | 46 to 94 | 778 to 20000 |
| CC/N=C1\N/C(=C\c2ccc(-n3cnc(C)c3)c(OC)c2)C(=O)N1C(C)c1cc(F)c(F)c(F)c1 (centres unmarked) [Example B8] | 46 to 94 | 778 to 20000 |
| COc1cc(/C=C2\N/C(=N\CCO)N(C(C)c3cc(F)c(F)c(F)c3)C2=O)ccc1-n1cnc(C)c1 (centres unmarked) [Example B10] | 46 to 94 | 778 to 20000 |
| CCCC/N=C1\N/C(=C\c2ccc(-n3cnc(C)c3)c(OC)c2)C(=O)N1C(C)c1cc(F)c(F)c(F)c1 (centres unmarked) [Example B11] | 46 to 94 | 778 to 20000 |
| COc1cc(/C=C2\N/C(=N\CC3CC3)N(C(C)c3cc(F)c(F)c(F)c3)C2=O)ccc1-n1cnc(C)c1 (centres unmarked) [Example B12] | 46 to 94 | 778 to 20000 |
| COc1cc(/C=C2\NC(=N)N([C@H](C)c3ccc(F)cc3)C2=O)ccc1-n1cnc(C)c1 [Example B13] | 46 to 94 | 778 to 20000 |
| CCCC/N=C1\N/C(=C\c2ccc(-n3cnc(C)c3)c(OC)c2)C(=O)N1[C@H](C)c1ccc(F)cc1 [Example B14] | 46 to 94 | 778 to 20000 |
| COc1cc(/C=C2\N/C(=N\CCO)N([C@H](C)c3ccc(F)cc3)C2=O)ccc1-n1cnc(C)c1 [Example B15] | 46 to 94 | 778 to 20000 |
| COc1cc(/C=C2\N/C(=N\CC(F)(F)F)N([C@H](C)c3ccc(F)cc3)C2=O)ccc1-n1cnc(C)c1 [Example B18] | 46 to 94 | 778 to 20000 |
| CCCC/N=C1\N/C(=C\c2ccc(-n3cnc(C)c3)c(OC)c2)C(=O)N1Cc1cc(F)c(F)c(F)c1 [Example B22] | 46 to 94 | 778 to 20000 |
| COc1cc(/C=C2\N/C(=N\CC(F)(F)F)N(Cc3cc(F)c(F)c(F)c3)C2=O)ccc1-n1cnc(C)c1 [Example B23] | 46 to 94 | 778 to 20000 |
